The record followed here is patent US20240300945A1, “CLY SERIES COMPOUND, PREPARATION METHOD THEREFOR AND USE THEREOF IN PREPARATION OF DRUGS” (NANJING WELLBEST PHARMACEUTICAL CO., LTD, priority 2021, published 2024).

Molecules are shown by their SMILES. Marks after values point to notes of the source that are not given here.

Experiment [1] relates to rabbit ear acne model. Nature of the experiment: Rabbit ear acne model: macroscopic observation and histological grading. In kind it is in vivo, New Zealand rabbits. Particulars: right ear, 10 per group; for number of rabbits with acne histological grading 2+: Grade 2; for number of rabbits with acne histological grading —: Level 0, without acne; for number of rabbits with acne histological grading 1+: Level 1; for number of rabbits with acne histological grading 3+: Level 3.

In experiment [2] the test system is rabbit ear acne model. Kind of experiment: Rabbit ear acne model: epidermal thickness, hair follicle area, sebaceous gland diameter. In kind it is in vivo, New Zealand rabbits. The note with it: rabbit right ear.
In another experiment the test system is skin melanocytes. Kind of experiment: Chloasma model of guinea pig: pathomorphological observation of skin melanocytes. In kind it is in vivo. The arrangement: Average gray level (melanocyte depth): scale not given here. Particulars: 0.25% cream once a day, 30 days. An excerpt:
According to the body weight, they were randomly divided into the model control group (applied cream matrix), blank control group (applied cream matrix), CLY-1 treatment group (applied 0.25% CLY-1 cream on the skin), CLY-2 treatment group (0.25% CLY-2 cream on the skin), CLY-3 treatment group (0.25% CLY-3 cream on the skin), CLY-4 treatment group (0.25% CLY-4 cream on the skin), CLY-5 treatment group (0.25% CLY-5 cream on the skin) CLY-8 treatment group (0.25% CLY-8 cream on the skin), CLY-11 treatment group (0.25% CLY-11 cream on the skin), CLY-19 treatment group (0.25% CLY-19 cream on the skin), CLY-36 treatment group (0.25% CLY-36 cream on the skin), CLY-39 treatment group (0.25% CLY-39 cream on the skin), positive treatment group (0.25% arbutin cream on the skin), 6 in each group. In addition to the blank control group, all guinea pigs in the other groups were injected with 20 mg/ml progesterone injection (7.5 mg/kg) into the muscle at the root of the hind leg, once a day, for 30 consecutive days to establish the chloasma model. […] After modeling, the guinea pigs in the model control group, blank control group, each CLY series treatment group, and positive treatment group were treated with corresponding cream on the back for intervention, once a day, for 30 consecutive days.
Took 1 piece of spare skin tissue from each of all guinea pigs, about 2 cm×1 cm, 10% paraformaldehyde fixation, pathological tissue detection, immunohistochemical staining, observation of melanocyte staining and number, and judgment of positive cells according to the literature: none, 0 point<15%, 0.5 points<30%, 1 point; >30%, 2 points. Observed 5 visual fields in each slice, found out the positive target with brown reaction in the cytoplasm of skin epidermis and accessory epithelial cells, and used BX50F4 Beihang pathological image analysis system for quantitative analysis to obtain the average area, the ratio of target area to statistical field area (areal density), the ratio of target number to statistical field area (number density), the average gray level, the average optical density and the integrated optical density of each guinea pig's 5 visual fields of melanin positive target.
SPSS16.0 software was used for statistics. The measurement data were expressed by mean±standard deviation (x±s). The comparison between multiple groups was performed by one-way ANOVA, and the comparison between groups was performed by t-test. P<0.05 was statistically significant.

Setting [3] is: external use (0.25% CLY cream; positive: Differin).
Where [4] appears, read: intravenous injection 1 mg/kg·d.

For `NC1CCCC(N(C(=O)c2ccc(-n3nnc4cccnc43)cc2)c2ncccc2Cl)C1` (stereo not drawn) [CLY-11], in the experiment with rabbit ear acne model [1] (setting [3]), the “number of rabbits with acne histological grading 2+” value was 2, the “number of rabbits with acne histological grading —” value is recorded as 5, the “number of rabbits with acne histological grading 1+” value is 3 and the “number of rabbits with acne histological grading 3+” value turned out to be 0. Further, in the experiment with rabbit ear acne model [1] (setting [4]), the “number of rabbits with acne histological grading 2+” value was 1, the “number of rabbits with acne histological grading —” value stood at 7, the “number of rabbits with acne histological grading 1+” value is recorded as 2 and the “number of rabbits with acne histological grading 3+” value amounted to 0. Also, in the experiment on rabbit ear acne model [2] (setting [3]), the epidermal thickness is reported as 0.2372 ± 0.0176 mm, the hair follicle area is 0.2745 ± 0.0946* mm^2 and the sebaceous gland diameter is reported as 0.0786 ± 0.0392 mm. In the experiment with rabbit ear acne model [2] (setting [4]), the epidermal thickness was 0.2295 ± 0.0173 mm, the hair follicle area is given as 0.2246 ± 0.0856* mm^2 and the sebaceous gland diameter worked out at 0.0552 ± 0.0325 mm. Besides, in the experiment with skin melanocytes, the “Area density of melanocytes” value stood at 0.006 ± 0.002, the Area of melanocytes stood at 417.53 ± 73.16 um2, the “Average gray level (melanocyte depth)” value is listed as 0.46 ± 0.06 and the “Average optical density (melanocyte depth)” value (“Average optical density” for short) worked out at 11.26 ± 1.22. Further, in the experiment with skin melanocytes, the “Integrated optical density (melanocyte depth)” value (from here on “Integrated optical density”) is listed as 101.38 ± 9.92, the “Number density of melanocytes” value turned out to be 2.16 ± 1.38 and the Number of melanocytes is 1.98 ± 0.56.

On to `O=C(c1ccc(-n2nnc3cccnc32)cc1)N(c1ncccc1Cl)C1CCCC(O)C1` (stereo not drawn) [CLY-4], for which, in the experiment with rabbit ear acne model [1] (setting [3]), the “number of rabbits with acne histological grading 2+” value came to 2, the “number of rabbits with acne histological grading —” value stood at 3, the “number of rabbits with acne histological grading 1+” value is 5 and the “number of rabbits with acne histological grading 3+” value is listed as 0. In the experiment on rabbit ear acne model [1] (setting [4]), the “number of rabbits with acne histological grading 2+” value was determined as 2, the “number of rabbits with acne histological grading —” value is on record as 5, the “number of rabbits with acne histological grading 1+” value amounted to 3 and the “number of rabbits with acne histological grading 3+” value was found to be 0. In addition, in the experiment with rabbit ear acne model [2] (setting [3]), the epidermal thickness was determined as 0.2436 ± 0.0215 mm, the hair follicle area is recorded as 0.3254 ± 0.1126* mm^2 and the sebaceous gland diameter amounted to 0.0958 ± 0.0456 mm. Besides, in the experiment on rabbit ear acne model [2] (setting [4]), the epidermal thickness was found to be 0.2363 ± 0.0235 mm, the hair follicle area is reported as 0.2465 ± 0.0923* mm^2 and the sebaceous gland diameter was determined as 0.0625 ± 0.0386 mm. In the experiment with skin melanocytes, the “Area density of melanocytes” value was found to be 0.009 ± 0.003, the Area of melanocytes worked out at 496.56 ± 86.23 um2, the “Average gray level (melanocyte depth)” value amounted to 0.58 ± 0.09 and the “Average optical density” value is recorded as 11.61 ± 1.38. Besides, in the experiment on skin melanocytes, the “Integrated optical density” value is given as 92.45 ± 9.36, the “Number density of melanocytes” value was determined as 2.95 ± 1.41 and the Number of melanocytes is given as 2.45 ± 0.67.

As for `O=C(c1ccc(-c2ccccc2-c2nnn[nH]2)cc1)N(c1ncccc1Cl)[C@@H]1CCCNC1` [CLY-19], in the experiment on rabbit ear acne model [1] (setting [3]), the “number of rabbits with acne histological grading 2+” value worked out at 3, the “number of rabbits with acne histological grading —” value came to 5, the “number of rabbits with acne histological grading 1+” value is 2 and the “number of rabbits with acne histological grading 3+” value turned out to be 0. In addition, in the experiment on rabbit ear acne model [1] (setting [4]), the “number of rabbits with acne histological grading 2+” value is on record as 1, the “number of rabbits with acne histological grading —” value was determined as 8, the “number of rabbits with acne histological grading 1+” value came out at 1 and the “number of rabbits with acne histological grading 3+” value is 0. Besides, in the experiment with rabbit ear acne model [2] (setting [3]), the epidermal thickness is 0.2365 ± 0.0181 mm, the hair follicle area was 0.2766 ± 0.0953* mm^2 and the sebaceous gland diameter is 0.0795 ± 0.0398 mm. In the experiment on rabbit ear acne model [2] (setting [4]), the epidermal thickness came out at 0.2276 ± 0.0165 mm, the hair follicle area is 0.2235 ± 0.0843* mm^2 and the sebaceous gland diameter is 0.0523 ± 0.0316 mm. Also, in the experiment on skin melanocytes, the “Area density of melanocytes” value is 0.006 ± 0.003, the Area of melanocytes was 405.62 ± 73.45 um2, the “Average gray level (melanocyte depth)” value was determined as 0.45 ± 0.06 and the “Average optical density” value turned out to be 11.28 ± 1.24. Further, in the experiment on skin melanocytes, the “Integrated optical density” value amounted to 102.65 ± 9.97, the “Number density of melanocytes” value turned out to be 2.18 ± 1.35 and the Number of melanocytes was 1.95 ± 0.52.
